Results reported in patent US9155784B2, “Anti-TNF-α therapy for the mucopolysaccharidoses and other lysosomal disorders” (Icahn School of Medicine at Mount Sinai, priority 2011, dated 2015).

Assays:
MPS VI rats [1] = assay: Accelerating rotarod of PPS treated MPS VI rats; type: in vivo, rat
Protocol: FIG. 9 depicts rotarod analysis of MPS VI rats with and without PPS. Six-month-old MPS VI rats were maintained with or without PPS for 3 months (n=6/group), and prior to sacrifice were analyzed using an accelerating rotarod apparatus. Gray=MPS VI rats on normal water; Blue=MPS VI rats receiving PPS.
FIGS. 12A-12C show results of treatment of MPS VI rats at one month of age. In FIGS. 12A and 12B, one-month old MPS VI rats were maintained for eight months on normal water or with water containing 25 mg/day PPS (n=6/group). Representative images are shown. Arrows indicate ocular porphyrin secretions, wide broad skull and snout and small ears in the untreated, with marked improvement in the treated animal. In FIG. 12C, animals were tested on an accelerating rotarod apparatus. […] In addition, only normal and treated rats were able to remain on the rotating rod at speeds up to 35 RPM (60% of normal).
(§1) Immediately prior to sacrifice, the animals also were studied using an accelerating rotarod apparatus. […] It was hypothesized that this reflects either increased joint mobility and/or reduced inflammation and pain in the treatment group. […] Serum levels of inflammatory marker MIP-1α is shown in FIG. 11A, while levels of marker Rantes is show in FIG. 11B and levels of TNF-α are shown in FIG. 11C.

MPS VI rats [2] = assay: MicroCT of dentition in PPS treated MPS VI rats; type: in vivo, rat; conditions: PPS 25 mg/day, start at 6 months of age, 3 months
Protocol: FIGS. 8A-8F show microCT images of normal rats (FIGS. 8A, 8B) MPS VI rats with PPS treatment (FIGS. 8E, 8F) and without PPS treatment (FIGS. 8C, 8D) showing dentition changes. MPS VI rats were maintained on normal watering or with water containing 25 mg/day PPS (n=6/group). Animals were 6 months of age when treatment was begun, and treatment was carried out for 3 months. Untreated MPS VI rats have overgrown incisors (box) that leads to abnormal alignment of the teeth compared to normal rats. The mandible and misalignment were corrected by PPS treatment.
Untreated MPS VI rats have overgrown incisors (box) (FIGS. 8C, 8D) that leads to abnormal alignment of the teeth compared to normal rats. The mandible and misalignment were corrected by PPS treatment (FIGS. 8E, 8F).

MPS VI rats [3] = assay: Skull and snout appearance, radiographs and microCT in PPS treated MPS VI rats; type: in vivo, rat
Protocol: FIGS. 6A-6D show results of MPS VI rats treated with PPS. MPS VI rats were maintained on normal watering (FIG. 6A) or with water containing 25 mg/day PPS (n=6/group) (FIG. 6B). Animals were 6 months of age when treatment began, and treatment was carried out for 3 months. Skull and snout images were taken at the end of treatment. Representative images are shown. Skull length and width measurements also were determined from the radiographs for each of the animals, and the data are shown in the bar graph (FIGS. 6C, 6D). White=normal 9 month old, Gray=MPS VI rats on normal water; Blue=MPS VI rats receiving PPS. *=p<0.01.
FIGS. 7A-7F show skull radiographs (FIGS. 7A, 7B, 7C) and microCT images (FIGS. 7D, 7E, 7F) of normal rats (FIGS. 7A, 7D), MPS VI rats with PPS treatment (FIGS. 7C, 7F), and MPS VI rats without PPS treatment (FIGS. 7B, 7E). MPS VI rats were maintained on normal watering or with water containing 25 mg/day PPS (n=6/group). Animals were 6 months of age when treatment was begun, and treatment was carried out for 3 months. The top images show radiographs (FIGS. 7A, 7B, 7C), and the bottom images microCT images (FIGS. 7D, 7E, 7F). Longer snouts and thinner skulls were found in the MPS VI rats treated with PPS compared to untreated MPS VI. The lines in the radiographs are for reference. The quantitative data shown in FIGS. 6A-6D on skull length and width were measured from these radiographs.
In order to develop “proof-of-principle” data, six MPS VI rats at 6 months of age were treated with PPS for 3 months. 6-month-old MPS VI rats have established bone, cartilage, and inflammatory disease, and the specific goal in this initial study was therefore to evaluate whether PPS could either slow or reverse any of the clinical or pathological findings in MPS animals with advanced disease. […] As illustrated by FIGS. 7A-7F skull radiographs and microCT images were taken of normal rats (FIGS. 7A, 7D), MPS VI rats with PPS treatment (FIGS. 7C, 7F), and MPS VI rats without PPS treatment (FIGS. 7B, 7E). […] The images shown are representative of the general observations on these animals.

TNF-α = assay: Immunohistochemical analysis of TNF-α in liver and spleen of PPS treated MPS VI rats; type: in vivo, rat; conditions: PPS start at 6 months, 9-month-old animals, vs untreated
Excerpt: (§2) FIGS. 10A-10B illustrate immunohistochemical analysis of PPS treated and untreated rats.
as §1

MIP-1α, Rantes, TNF-α = assay: Serum inflammatory markers by ELISA in PPS treated MPS VI rats; type: in vivo, rat
Protocol: as §2
FIGS. 11A-11C show serum inflammatory markers in treated and untreated MPS VI rats. Three groups of MPS VI rats were treated with PPS beginning at six months (light gray), one month (dark gray) or prenatally (black). All animals were sacrificed at 9 months of age. The duration of treatment was therefore 3 months, 8 months or 9.75 months, respectively. The serum levels of several inflammatory markers were measured by ELISA assays, and compared to normal (hatched) or untreated MPS VI animals (white). N=6/group. Serum levels of inflammatory marker MIP-1α is shown in FIG. 11A, while levels of marker Rantes is shown in FIG. 11B and levels of TNF-α are shown in FIG. 11C.
as §1

[4] = system: Niemann-Pick disease mice (acid sphingomyelinase knock-out); assay: Rotarod analysis of Niemann-Pick disease mice treated with PPS; type: in vivo, mouse; conditions: 25 mg/kg/day for three months from one month of age; 20 RPM; p<0.01; remained below wild-type
Protocol: One-month-old Niemann-Pick disease mice (acid sphingomyelinase knock-out) were treated with PPS for three months beginning at one month of age (25 mg/kg/day). They were then analyzed using an accelerating rotarod apparatus set to 20 RPM.

MPS VI rats [5] = assay: Tracheas of MPS VI rats treated with PPS; type: in vivo, rat; conditions: all PPS treatment groups (start 6 months, 1 month, prenatally), sacrificed at 9 months
Protocol: FIG. 13 illustrates tracheas of MPS VI rats treated with PPS. Groups 1, 2 and 3 animals were treated with PPS beginning at 6 months, 1 month, and prenatally. They were sacrificed at 9 months and the tracheas were isolated.

MPS VI rats [6] = assay: Spine disease: disc height index from sagittal radiographs, PPS treated MPS VI rats; type: in vivo, rat; conditions: PPS treatment of skeletally mature animals (6 months of age)
Protocol: FIGS. 14A-14C show an assessment of spine disease in the treated (6 month old) and untreated MPS VI rats.
Lastly, spine disease in the treated (6 month old) and untreated MPS VI rats was assessed. These studies have documented several important and clinically relevant endpoints that can be followed during PPS treatment. Histologically, MPS VI discs had abundant, enlarged vacuolated nuclear and annular cells as well as thickened annulus layers, focal defects in the nucleus pulposus, and increased disc height as compared to control discs (FIG. 14A). […] ADAMTS-5 is a proteoglycan-degrading aggrecanase that also is elevated in untreated MPS VI rat chondrocytes, but was reduced in the MPS VI treatment groups (FIG. 15).

articular chondrocytes = assay: Western blotting of articular chondrocytes from PPS treated MPS VI rats; type: in vivo, rat; conditions: western blot, PPS groups 1-3, sacrificed at 9 months
Protocol: Groups 1, 2 and 3 animals were treated with PPS beginning at 6 months, 1 month and prenatally. They were sacrificed at 9 months and articular chondrocytes were isolated and grown for 3 weeks. They were then analyzed by western blotting. […] ADAMTS-5 is a proteeoglycan-degrading aggrecanase that also is elevated in untreated MPS VI rat chondrocytes, and was reduced in the MPS VI treatment groups.

[7] = PPS 25 mg/day in water, start at 6 months of age, 3 months, vs untreated MPS VI
[8] = all treatment groups (start 6 months, 1 month or prenatally), sacrificed at 9 months, vs untreated

In the case of Pentosan polysulfate [PPS], the “time on the rotating rod versus untreated” value (MPS VI rats [1]; PPS start at 1 month of age, 8 months, 20 RPM) is reported as “more than twice as long”, the “rotarod performance at speeds up to 35 RPM” value (MPS VI rats [1]; PPS start at 1 month of age, 8 months, untreated unable to remain) is reported as 60 % of normal and the “time on the rotating rod versus untreated” value (MPS VI rats [1]; PPS start at 6 months of age, 3 months, p<0.02) is reported as “more than twice as long”. The “mandible and misalignment of the teeth” value (MPS VI rats [2]) was “corrected”, the skull length (MPS VI rats [3]; [7]) was “significantly longer” and the skull width (MPS VI rats [3]; [7]) was “thinner”. For the same substance, the snout length (MPS VI rats [3]; [7]) was “significantly longer”, the “facial appearance, skull length, eye and nasal secretions, and motility” value (MPS VI rats [3]; PPS start at 1 month of age, 8 months) was “significant effect” and the ocular porphyrin secretions (MPS VI rats [3]; PPS start at 6 months of age, 3 months, vs untreated MPS VI) was “markedly fewer”. The “TNF-α expression in liver and spleen” value (TNF-α) was “decreased”, the “serum TNF levels” value (MIP-1α, Rantes, TNF-α; PPS start at 6 months, 9-month-old animals, vs untreated (FIG. 10B)) was “decreased” and the “serum MIP-1α level” value (MIP-1α, Rantes, TNF-α; [8]) was “significantly (<0.001) lower”. For the same substance, the “serum Rantes level” value (MIP-1α, Rantes, TNF-α; [8]) was “significantly (<0.001) lower”, the “serum TNF-α level” value (MIP-1α, Rantes, TNF-α; [8]) was “significantly (<0.001) lower” and the “rotarod performance versus untreated NPD mice” value [4] was “significantly better”. For the same substance, the collapsed tracheas (MPS VI rats [5]) was “improved”, the “disc height index (DHI)” value (MPS VI rats [6]) was “did not influence” and the “ADAMTS-5 in articular chondrocytes” value (articular chondrocytes) was “reduced”. The “Cox-2 in articular chondrocytes” value (articular chondrocytes) was “reduced to normal”, the “TNF-α in articular chondrocytes” value (articular chondrocytes) was “reduced to normal” and the “p38 in articular chondrocytes” value (articular chondrocytes) was “reduced to normal”.
